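Grown in 96-well plates, cells were treated for 48 hours with each compound at five concentrations. Insufficient inhibition: endpoint recorded as highest concentration tested. Definition used: TGI = concentration required for complete inhibition of growth.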
Experiments:
Assay in all cases: inhibition of tumour cell growth, NCI panel, 48 h
PC-3 prostate = test system: PC-3 prostate
SR leukemia = test system: SR leukemia
U251 CNS = test system: U251 CNS
UACC-257 melanoma = test system: UACC-257 melanoma
NCI-H226 lung = test system: NCI-H226 lung
HCT-15 colon = test system: HCT-15 colon
HCC-2998 colon = test system: HCC-2998 colon
UACC-62 melanoma = test system: UACC-62 melanoma
RPMI-8226 leukemia = test system: RPMI-8226 leukemia
MCF7 breast = test system: MCF7 breast
T-47D breast = test system: T-47D breast
HOP-92 NSCLC = test system: HOP-92 NSCLC
SN12C renal = test system: SN12C renal
IGROV1 ovarian = test system: IGROV1 ovarian
NCI-H23 lung = test system: NCI-H23 lung
TK-10 renal = test system: TK-10 renal
OVCAR-8 ovarian = test system: OVCAR-8 ovarian
SNB-19 CNS = test system: SNB-19 CNS
OVCAR-3 ovarian = test system: OVCAR-3 ovarian
UO-31 renal = test system: UO-31 renal
SK-OV-3 ovarian = test system: SK-OV-3 ovarian
SNB-75 CNS = test system: SNB-75 CNS
M14 melanoma = test system: M14 melanoma
SF-295 CNS = test system: SF-295 CNS
RXF 393 renal = test system: RXF 393 renal
MALME-3M melanoma = test system: MALME-3M melanoma
KM12 colon = test system: KM12 colon
HOP-62 NSCLC = test system: HOP-62 NSCLC
OVCAR-4 ovarian = test system: OVCAR-4 ovarian
EKVX NSCLC = test system: EKVX NSCLC
DU-145 prostate = test system: DU-145 prostate
HS 578T breast = test system: HS 578T breast
NCI/ADR-RES ovarian = test system: NCI/ADR-RES ovarian
SW-620 colon = test system: SW-620 colon
OVCAR-5 ovarian = test system: OVCAR-5 ovarian
SK-MEL-2 melanoma = test system: SK-MEL-2 melanoma
MDA-MB-231 breast = test system: MDA-MB-231 breast
BT-549 breast = test system: BT-549 breast
ACHN renal = test system: ACHN renal
HL-60(TB) leukemia = test system: HL-60(TB) leukemia
K-562 leukemia = test system: K-562 leukemia
SK-MEL-28 melanoma = test system: SK-MEL-28 melanoma
CAKI-1 renal = test system: CAKI-1 renal
MOLT-4 leukemia = test system: MOLT-4 leukemia
A549 NSCLC = test system: A549 NSCLC
LOX IMVI melanoma = test system: LOX IMVI melanoma
CCRF-CEM leukemia = test system: CCRF-CEM leukemia
HT29 colon = test system: HT29 colon
A498 renal = test system: A498 renal
HCT-116 colon = test system: HCT-116 colon
NCI-H460 lung = test system: NCI-H460 lung
SK-MEL-5 melanoma = test system: SK-MEL-5 melanoma
COLO 205 colon = test system: COLO 205 colon
786-0 renal = test system: 786-0 renal
SF-539 CNS = test system: SF-539 CNS
SF-268 CNS = test system: SF-268 CNS

Structure (SMILES): COc1ccc2c(c1)/C(=C\c1c(Cl)n(-c3ccccc3)c3ccccc13)C(=O)N2
- TGI (PC-3 prostate): > 100 µM
- TGI (SR leukemia): > 100 µM
- TGI (U251 CNS): 38.5 µM
- TGI (UACC-257 melanoma): 50.8 µM
- TGI (NCI-H226 lung): 24.5 µM
- TGI (HCT-15 colon): 25.3 µM
- TGI (HCC-2998 colon): 22.2 µM
- TGI (UACC-62 melanoma): 32.6 µM
- TGI (RPMI-8226 leukemia): 45.4 µM
- TGI (MCF7 breast): 29.5 µM
- TGI (T-47D breast): 75.4 µM
- TGI (HOP-92 NSCLC): 17.6 µM
- TGI (SN12C renal): 35.5 µM
- TGI (IGROV1 ovarian): 27.9 µM
- TGI (NCI-H23 lung): 38.4 µM
- TGI (TK-10 renal): 84.4 µM
- TGI (OVCAR-8 ovarian): > 100 µM
- TGI (SNB-19 CNS): 22.1 µM
- TGI (OVCAR-3 ovarian): 6.78 µM
- TGI (UO-31 renal): 18.3 µM
- TGI (SK-OV-3 ovarian): > 100 µM
- TGI (SNB-75 CNS): 52.2 µM
- TGI (M14 melanoma): 15 µM
- TGI (SF-295 CNS): 25.9 µM
- TGI (RXF 393 renal): 11.2 µM
- TGI (MALME-3M melanoma): 19.3 µM
- TGI (KM12 colon): 14.7 µM
- TGI (HOP-62 NSCLC): 33.6 µM
- TGI (OVCAR-4 ovarian): 41.4 µM
- TGI (EKVX NSCLC): 57.5 µM
- TGI (DU-145 prostate): 21.4 µM
- TGI (HS 578T breast): 5.28 µM
- TGI (NCI/ADR-RES ovarian): 7.98 µM
- TGI (SW-620 colon): > 100 µM
- TGI (OVCAR-5 ovarian): 50 µM
- TGI (SK-MEL-2 melanoma): 51.1 µM
- TGI (MDA-MB-231 breast): > 100 µM
- TGI (BT-549 breast): 51.3 µM
- TGI (ACHN renal): 45.1 µM
- TGI (HL-60(TB) leukemia): 10.7 µM
- TGI (K-562 leukemia): > 100 µM
- TGI (SK-MEL-28 melanoma): > 100 µM
- TGI (CAKI-1 renal): 56.7 µM
- TGI (MOLT-4 leukemia): > 100 µM
- TGI (A549 NSCLC): 51.4 µM
- TGI (LOX IMVI melanoma): 92.7 µM
- TGI (CCRF-CEM leukemia): 55.8 µM
- TGI (HT29 colon): 14.2 µM
- TGI (A498 renal): 32 µM
- TGI (HCT-116 colon): 14.6 µM
- TGI (NCI-H460 lung): 68.2 µM
- TGI (SK-MEL-5 melanoma): 21.3 µM
- TGI (COLO 205 colon): 21.9 µM
- TGI (786-0 renal): 29.2 µM
- TGI (SF-539 CNS): 41.6 µM
- TGI (SF-268 CNS): 20.3 µM

From PubChem BioAssay (NCI)
